This is an account of results in patent US7803571B2, “Method for identifying IRS inhibitors or agonists” (Sanfoi-Aventis Deutschland GmbH, priority 2003, dated 2010).

Test [1] concerns PKC from rat brain (PKC-rb). As to the kind of experiment: Serine/threonine phosphorylation of rIRS-1^449-664 by PKC from rat brain ([32P]ATP, autoradiography). The class given is biochemical. Particulars: 0.5 μg PKC-rb, 1 μg rIRS-1^449-664, 50 μM ATP. As to the method: For rIRS-1^449-664 phosphorylation by insulin receptor, […] of the WGA-purified glycoprotein fraction was preincubated for 30 min at 30° C. with 100 nM of insulin in a phosphorylation buffer containing 20 mM Hepes (pH 7.4), 1 mM DTT, 10 mM MgCl2, 100 μg/ml bovine serum albumin, 0.2 mM Na3VO4, 1.7 mM CaCl2, 0.6 mg/ml phosphatidylserine, and 0.5 μg/ml okadaic acid. Autophosphorylation was initiated by the addition of ATP at a concentration of 50 μM and continued for 10 min at 30° C. Substrate phosphorylations were initiated by addition of equal volumes of […] (1 μg) with or without pre-treatment (30 min) by the PKC isoforms in the same buffer in the presence of 50 μM ATP and was allowed to proceed for 10 min at 30° C. in a final volume of 50 μl. […] Proteins were separated by SDS-PAGE and analyzed by immunodetection with an anti-phosphotyrosine antibody after transfer to nitrocellulose. Serine/threonine phosphorylation of rIRS-1^449-664 by different PKC isoforms was assessed by incubating 1 μg rIRS-1^449-664 with 0.5 μg PKC-rb or PKC-ζ in phosphorylation buffer for 30 min at 30° C. in the presence of 50 μM ATP plus 2 μCi [γ-^32P]ATP in a volume of 20 μl. […] The extent of phosphate incorporation was determined by Cerenkov counting of excised fragments. […]

A further test addresses T1, insulin receptor (Rattus norvegicus, UniProt P15127).
T1 construct: from tissue; host or cells: rat liver
The test is described as follows: In vitro phosphorylation assay: tyrosine phosphorylation of rIRS-1^449-664 by insulin receptor. The class given is biochemical. The procedure: Rat liver was rapidly removed, immediately frozen in liquid nitrogen and processed as described (41). Briefly, 3.5 vol/wt of an ice-cold buffer consisting of 50 mM Hepes (pH 7.4), 1% Triton X-100 and 2× Complete Protease Inhibitors was added and the liver was homogenized using an Ultraturrax and a Potter-Elvehjem homogenizer, followed by centrifugation at 10,000×g for 10 min at 4° C. The resultant supernatant was slowly stirred at room temperature for 60 min, then again centrifuged at 100,000×g for 90 min at 4° C. The supernatant was then applied to an agarose-bound wheat germ agglutinin (WGA) column. The column was washed with 50 mM Hepes (pH 7.4), 0.1% Triton X-100, and bound glycoproteins were eluted from the WGA column with this buffer containing 0.3 M N-acetylglucoseamine.
For rIRS-1^449-664 phosphorylation by insulin receptor, […] of the WGA-purified glycoprotein fraction was preincubated for 30 min at 30° C. with 100 nM of insulin in a phosphorylation buffer containing 20 mM Hepes (pH 7.4), 1 mM DTT, 10 mM MgCl2, 100 μg/ml bovine serum albumin, 0.2 mM Na3VO4, 1.7 mM CaCl2, 0.6 mg/ml phosphatidylserine, and 0.5 μg/ml okadaic acid. Autophosphorylation was initiated by the addition of ATP at a concentration of 50 μM and continued for 10 min at 30° C. Substrate phosphorylations were initiated by addition of equal volumes of […] (1 μg) with or without pre-treatment (30 min) by the PKC isoforms in the same buffer in the presence of 50 μM ATP and was allowed to proceed for 10 min at 30° C. in a final volume of 50 μl. The reaction was terminated by the addition of 6× sample buffer (0.35 M Tris-HCl (pH 6.8), 10.28% (w/v) SDS, 36% (v/v) glycerol; 0.6 M DTT, 0.012% (w/v) bromphenol blue) and boiling for 5 min. Proteins were separated by SDS-PAGE and analyzed by immunodetection with an anti-phosphotyrosine antibody after transfer to nitrocellulose. Serine/threonine phosphorylation of rIRS-1^449-664 by different PKC isoforms was assessed by incubating 1 μg rIRS-1^449-664 with 0.5 μg PKC-rb or PKC-ζ in phosphorylation buffer for 30 min at 30° C. in the presence of 50 μM ATP plus 2 μCi [γ-^32P]ATP in a volume of 20 μl. Proteins were resolved by SDS-PAGE and the stained and dried gels were subjected to autoradiography. The extent of phosphate incorporation was determined by Cerenkov counting of excised fragments.
Proteins were separated by SDS-PAGE using 8-18% gradient gels followed by transfer to nitrocellulose in a semi-dry blotting apparatus. […] All blots were quantified using the Lumilmager software. Significance of reported differences was evaluated by using the null hypothesis and t statistics for unpaired data. […]

For another test, the system named is PKC. As to the kind of experiment: Phosphorylation of IRS-1 serine 612 by PKC, immunoblot with phosphoserine 612 antibody. Particulars: PKC from rat brain and PKC-ζ, 30 min at 30° C. The class given is biochemical. As to the method: (A) 0.5 μg of rIRS-1^449-664 was incubated with 0.5 μg of the different PKCs for 30 min at 30° C. and immunoblotted with an antibody against phosphoserine 612. A representative experiment is shown. (B) Binding of p85α to immobilized peptides corresponding to the IRS-1 amino acids 605 to 615 with phosphotyrosine 608 or (C) without phosphotyrosine using surface plasmon resonance (pY608 -DDGpYMPMSPGV and Y608 -DDGYMPMSPGV). Protein concentrations of p85α used were (from bottom to top): 1, 5,10, 25, 50,100, 250, 500 nM. (D) Inhibition of p85α binding by competition with soluble peptides pY608-DDGpYMPMSPGV or (E) pY608-pS612-DDGpYMPMpSPGV. The soluble peptides were also immobilized on the chip. (F) Half-maximum inhibitory concentrations (IC50) were obtained by plotting the SPR response at equilibrium (440 s after injection) versus the log peptide concentration.
The inventors assessed modification of this site by PKC using a specific IRS-1 phosphoserine 612 antibody (αpS^612).
Background: Immunoblotting shows a protein as a band on a membrane.

The target of the next test is T2, IR β-subunit (Rattus norvegicus, UniProt P15127).
T2 construct: from tissue; host or cells: rat liver
The test is described as follows: Autophosphorylation of IR β-subunit in the presence of PKC isoforms. In kind it is biochemical. The settings on record: autoactivated receptor incubated 10 min at 30° C. with PKC. The procedure:
(A) Autophosphorylation of IR was conducted as outlined in FIG. 2. Either PKC-rb or PKC-ζ was added after 10 min of autophosphorylation and incubation was continued for another 10 min. Tyrosine phosphorylation of IR β-subunit was then analyzed by immunoblotting. (B) Quantification of blots was obtained using Lumi Imager software. Data are mean values±SEM (n=4-6).
For rIRS-1^449-664 phosphorylation by insulin receptor, […] of the WGA-purified glycoprotein fraction was preincubated for 30 min at 30° C. with 100 nM of insulin in a phosphorylation buffer containing 20 mM Hepes (pH 7.4), 1 mM DTT, 10 mM MgCl2, 100 μg/ml bovine serum albumin, 0.2 mM Na3VO4, 1.7 mM CaCl2, 0.6 mg/ml phosphatidylserine, and 0.5 μg/ml okadaic acid. Autophosphorylation was initiated by the addition of ATP at a concentration of 50 μM and continued for 10 min at 30° C. […] Proteins were separated by SDS-PAGE and analyzed by immunodetection with an anti-phosphotyrosine antibody after transfer to nitrocellulose. Serine/threonine phosphorylation of rIRS-1^449-664 by different PKC isoforms was assessed by incubating 1 μg rIRS-1^449-664 with 0.5 μg PKC-rb or PKC-ζ in phosphorylation buffer for 30 min at 30° C. in the presence of 50 μM ATP plus 2 μCi [γ-^32P]ATP in a volume of 20 μl. […] The extent of phosphate incorporation was determined by Cerenkov counting of excised fragments.

Another test concerns the target T3, p85α (Bos taurus, UniProt P23727).
T3 construct: GST (N, cleaved yes); made in house; host or cells: Escherichia coli BL21
The test is described as follows: GST pull down assay: interaction of rIRS-1^449-664 with p85α. The class given is binding, bovine. The settings on record: rIRS-1^449-664 preincubated with 0.5 μg PKC for 30 min; insulin-stimulated value set as 100%. The procedure:
In vitro phosphorylated rIRS-1^449-664 was incubated with glutathione sepharose beads on a rotator for 1 h at 4° C. Pellets were washed three times with binding buffer (50 mM Tris (pH 7.4), 150 mM NaCl, 1% (v/v) Nonidet P-40, 1 mM EDTA, 1 mM NaF, 1 mM Na3VO4). Then 0.5 μg recombinant p85α was added and incubation was continued for 2 h at 4° C. After three times washing, the bound proteins were eluted with 20 μl of 2× sample buffer and separated by SDS-PAGE.
Proteins were separated by SDS-PAGE using 8-18% gradient gels followed by transfer to nitrocellulose in a semi-dry blotting apparatus. The membrane was then blocked 60 min in Tris-buffered saline containing 0.05% Tween 20 and 1% BSA or 5% non fat dry milk and probed with appropriate antibodies (anti-IRS-1, anti-pTyr, anti-p85α). After extensive washing, the membranes were incubated with horseradish peroxidase-conjugated secondary antibodies, again washed and then the protein bands were visualized by the enhanced chemiluminescence (ECL) method on a Lumilmager workstation (Boehringer, Mannheim, Germany). All blots were quantified using the Lumilmager software. Significance of reported differences was evaluated by using the null hypothesis and t statistics for unpaired data. A p value less than 0.05 was considered to be statistically significant.

T1 sequence (P15127 27-759 limits assumed): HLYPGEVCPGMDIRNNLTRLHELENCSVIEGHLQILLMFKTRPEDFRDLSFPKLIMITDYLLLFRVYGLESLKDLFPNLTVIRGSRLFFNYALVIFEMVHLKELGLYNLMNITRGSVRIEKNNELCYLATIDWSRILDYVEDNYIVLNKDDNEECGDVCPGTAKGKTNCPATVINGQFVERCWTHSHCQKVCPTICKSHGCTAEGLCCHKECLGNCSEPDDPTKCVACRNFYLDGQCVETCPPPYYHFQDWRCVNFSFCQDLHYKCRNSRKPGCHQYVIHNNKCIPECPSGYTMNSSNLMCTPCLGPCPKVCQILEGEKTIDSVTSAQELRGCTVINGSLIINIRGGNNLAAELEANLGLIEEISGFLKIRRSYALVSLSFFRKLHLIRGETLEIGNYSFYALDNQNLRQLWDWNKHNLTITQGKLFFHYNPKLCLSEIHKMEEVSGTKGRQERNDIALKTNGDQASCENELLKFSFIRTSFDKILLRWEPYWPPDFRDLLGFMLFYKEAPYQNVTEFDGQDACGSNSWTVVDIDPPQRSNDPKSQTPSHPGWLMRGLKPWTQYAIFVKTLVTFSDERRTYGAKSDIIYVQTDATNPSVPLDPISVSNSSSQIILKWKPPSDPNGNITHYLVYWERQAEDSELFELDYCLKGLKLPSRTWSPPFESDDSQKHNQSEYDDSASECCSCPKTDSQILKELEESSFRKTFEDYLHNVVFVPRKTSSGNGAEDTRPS
T3 sequence (P23727 whole entry): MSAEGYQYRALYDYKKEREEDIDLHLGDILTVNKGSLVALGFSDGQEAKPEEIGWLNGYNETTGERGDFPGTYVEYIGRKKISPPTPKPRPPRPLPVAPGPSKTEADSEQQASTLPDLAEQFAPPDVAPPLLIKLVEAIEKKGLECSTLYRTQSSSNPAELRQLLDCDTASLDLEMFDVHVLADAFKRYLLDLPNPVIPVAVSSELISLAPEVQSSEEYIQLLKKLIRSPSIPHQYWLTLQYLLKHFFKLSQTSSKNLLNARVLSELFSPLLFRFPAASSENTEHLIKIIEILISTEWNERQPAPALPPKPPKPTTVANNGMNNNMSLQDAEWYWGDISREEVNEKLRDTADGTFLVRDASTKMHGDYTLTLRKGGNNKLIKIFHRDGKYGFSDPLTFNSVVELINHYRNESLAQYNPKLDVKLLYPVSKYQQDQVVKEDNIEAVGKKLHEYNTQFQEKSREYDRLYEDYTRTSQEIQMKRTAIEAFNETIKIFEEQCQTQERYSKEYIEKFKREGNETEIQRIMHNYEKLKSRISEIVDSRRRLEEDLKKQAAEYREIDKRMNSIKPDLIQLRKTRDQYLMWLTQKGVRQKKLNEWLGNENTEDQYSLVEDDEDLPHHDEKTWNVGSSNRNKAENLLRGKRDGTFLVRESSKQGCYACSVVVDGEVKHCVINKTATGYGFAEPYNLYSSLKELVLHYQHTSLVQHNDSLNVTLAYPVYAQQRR
T2 sequence (P15127 27-759 limits assumed): as the sequence (P15127 27-759 limits assumed) above

On to `CN(C)CCCn1cc(C2=C(c3c[nH]c4ccccc34)C(=O)NC2=O)c2ccccc21` [BIM, bisindolylmaleimide I], for which the “Phosphorylation of rIRS-1^449-664 by PKC-rb in the presence of inhibitor” value in test [1] is reported as “inhibited”. The “Effect of inhibiting PKC-rb after phosphorylation of rIRS-1^449-664 on the reduced tyrosine phosphorylation and p85α association” value at insulin receptor (BIM added for 10 min before substrate phosphorylation by IR) is “did not modify this result”. Moreover, the “Phosphorylation of serine 612 of rIRS-1^449-664 by PKC in the presence of inhibitor” value in the test with PKC is given as “clearly prevented the phosphorylation of this serine”.

B1: PKC-ζ: recombinant human protein kinase C-ζ, obtained from Calbiochem (protein)
chain: MPSRTGPKMEGSGGRVRLKAHYGGDIFITSVDAATTFEELCEEVRDMCRLHQQHPLTLKWVDSEGDPCTVSSQMELEEAFRLARQCRDEGLIIHVFPSTPEQPGLPCPGEDKSIYRRGARRWRKLYRANGHLFQAKRFNRRAYCGQCSERIWGLARQGYRCINCKLLVHKRCHGLVPLTCRKHMDSVMPSQEPPVDDKNEDADLPSEETDGIAYISSSRKHDSIKDDSEDLKPVIDGMDGIKISQGLGLQDFDLIRVIGRGSYAKVLLVRLKKNDQIYAMKVVKKELVHDDEDIDWVQTEKHVFEQASSNPFLVGLHSCFQTTSRLFLVIEYVNGGDLMFHMQRQRKLPEEHARFYAAEICIALNFLHERGIIYRDLKLDNVLLDADGHIKLTDYGMCKEGLGPGDTTSTFCGTPNYIAPEILRGEEYGFSVDWWALGVLMFEMMAGRSPFDIITDNPDMNTEDYLFQVILEKPIRIPRFLSVKASHVLKGFLNKDPKERLGCRPQTGFSDIKSHAFFRSIDWDLLEKKQALPPFQPQITDDYGLDNFDTQFTSEPVQLTPDDEDAIKRIDQSEFEGFEYINPLLLSTEESV
Take B1: the “Alteration of IR autophosphorylation compared to controls” value with IR β-subunit is given as “No significant alteration”. In the test with p85α, the “Inhibition of p85α association with rIRS-1^449-664 by PKC pretreatment” value came out at 81±1%. Also, in the test with insulin receptor (rIRS-1^449-664 preincubated with 0.5 μg PKC for 30 min, insulin-stimulated value set as 100%), the “Reduction of insulin-stimulated tyrosine phosphorylation of rIRS-1^449-664 by PKC pretreatment” value came out at 46±5%.
